Several values for one entry are separate records, joined by “and”; a condition that tells them apart may be missing. Identical values can stand only once. Toxic doses and inconclusive results are not listed.
System: L1210 leukemia ip in BDF1 mice, survival T/C
Assay: NCI In Vivo Anticancer Drug Screen. Data for tumor model L1210 Leukemia (intraperitoneal) in B6D2F1 (BDF1) mice
Details: endpoint: mean survival time, higher = longer survival
Outline: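 Each compound was tested against a transplantable tumor grown in mice. The endpoint was survival, with treated animals benchmarked against vehicle controls as a simple ratio.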

[1] = dose: 100.0 mg/kg/injection, schedule: Q01DX009 (ip), vehicle: saline with Tween-80
[2] = dose: 100.0 mg/kg/injection, schedule: Q04DX003 (ip), vehicle: saline with Tween-80
[3] = dose: 200.0 mg/kg/injection, schedule: Q01DX009 (ip), vehicle: saline with Tween-80
[4] = dose: 200.0 mg/kg/injection, schedule: Q04DX003 (ip), vehicle: saline with Tween-80
[5] = dose: 400.0 mg/kg/injection, schedule: Q01DX009 (ip), vehicle: saline with Tween-80
[6] = dose: 400.0 mg/kg/injection, schedule: Q04DX002 (ip), vehicle: saline with Tween-80
[7] = dose: 400.0 mg/kg/injection, schedule: Q04DX003 (ip), vehicle: saline with Tween-80
[8] = dose: 100.0 mg/kg/injection, schedule: Q01DX009 (ip), vehicle: saline
[9] = dose: 100.0 mg/kg/injection, schedule: Q04DX003 (ip), vehicle: saline
[10] = dose: 200.0 mg/kg/injection, schedule: Q01DX009 (ip), vehicle: saline
[11] = dose: 200.0 mg/kg/injection, schedule: Q04DX003 (ip), vehicle: saline
[12] = dose: 75.0 mg/kg/injection, schedule: Q01DX001 (ip), vehicle: carboxymethylcellulose (CMC)
[13] = dose: 150.0 mg/kg/injection, schedule: Q01DX001 (ip), vehicle: carboxymethylcellulose (CMC)
[14] = dose: 100.0 mg/kg/injection, schedule: Q01DX001 (ip), vehicle: saline
[15] = dose: 200.0 mg/kg/injection, schedule: Q01DX001 (ip), vehicle: saline
[16] = dose: 400.0 mg/kg/injection, schedule: Q01DX001 (ip), vehicle: saline
[17] = dose: 100.0 mg/kg/injection, schedule: Q04DX003 (ip), vehicle: Klucel (hydroxypropylcellulose) (HPC)
[18] = dose: 200.0 mg/kg/injection, schedule: Q04DX003 (ip), vehicle: Klucel (hydroxypropylcellulose) (HPC)
[19] = dose: 400.0 mg/kg/injection, schedule: Q04DX003 (ip), vehicle: Klucel (hydroxypropylcellulose) (HPC)
[20] = dose: 100.0 mg/kg/injection, schedule: Q01DX009 (ip), vehicle: Klucel (hydroxypropylcellulose) (HPC)
[21] = dose: 200.0 mg/kg/injection, schedule: Q01DX009 (ip), vehicle: Klucel (hydroxypropylcellulose) (HPC)
[22] = dose: 100.0 mg/kg/injection, schedule: Q04DX002 (ip), vehicle: Klucel (hydroxypropylcellulose) (HPC)
[23] = dose: 200.0 mg/kg/injection, schedule: Q04DX002 (ip), vehicle: Klucel (hydroxypropylcellulose) (HPC)
[24] = dose: 400.0 mg/kg/injection, schedule: Q04DX002 (ip), vehicle: Klucel (hydroxypropylcellulose) (HPC)

In the case of `CCCC(=O)OC1CC(C)CCC1C(C)C` (stereo not given), the T/C (dose: 25.6 mg/kg/injection, schedule: Q04DX002 (ip), vehicle: saline with Tween-80) is reported as 96 % of control, the T/C (dose: 64.0 mg/kg/injection, schedule: Q04DX002 (ip), vehicle: saline with Tween-80) is reported as 96 % of control and the T/C [1] is reported as 90 % of control. The T/C [2] was 88 % of control, the T/C (dose: 160.0 mg/kg/injection, schedule: Q04DX002 (ip), vehicle: saline with Tween-80) was 92 % of control and the T/C [3] was 94 % of control. The T/C [4] was 94 % of control, the T/C [5] was 92 % of control and the T/C [6] was 96 % of control. The T/C [7] was 100 % of control.
For `O=C(Nc1nc2ccccc2s1)c1ccc(C(=O)Nc2nc3ccccc3s2)cc1`, the T/C (dose: 100.0 mg/kg/injection, schedule: Q01DX001 (ip), vehicle: other) was 93 % of control, the T/C (dose: 200.0 mg/kg/injection, schedule: Q01DX001 (ip), vehicle: other) was 90 % of control and the T/C (dose: 400.0 mg/kg/injection, schedule: Q01DX001 (ip), vehicle: other) was 91 % of control.
`O=S(=O)(c1ccccc1)c1nn2nnnc2c2ccccc12` was tested, and the T/C (dose: 50.0 mg/kg/injection, schedule: Q04DX003 (ip), vehicle: saline with Tween-80) was 107 % of control, the T/C [2] was 104 % of control and the T/C [4] was 103 % of control.
With `COC1(OC)CCC=C(CNc2ncnc3nc[nH]c23)C1` the T/C (dose: 100.0 mg/kg/injection, schedule: Q01DX001 (ip), vehicle: saline with Tween-80) was 102 % of control, the T/C (dose: 200.0 mg/kg/injection, schedule: Q01DX001 (ip), vehicle: saline with Tween-80) was 94 % of control and the T/C (dose: 400.0 mg/kg/injection, schedule: Q01DX001 (ip), vehicle: saline with Tween-80) was 100 % of control.
`CC(C)(CO)COS(=O)(=O)c1ccc(Br)cc1` was tested, and the T/C (dose: 50.0 mg/kg/injection, schedule: Q01DX009 (ip), vehicle: saline with Tween-80) was 89 % of control.
For `COC(=O)C1CCC1(C#N)C(=O)OC` (stereo not given), the T/C [8] was 93 % of control, the T/C [9] was 98 % of control and the T/C [10] was 92 % of control. For the same compound, the T/C [11] was 98 % of control, the T/C (dose: 400.0 mg/kg/injection, schedule: Q01DX009 (ip), vehicle: saline) was 109 % of control and the T/C (dose: 400.0 mg/kg/injection, schedule: Q04DX003 (ip), vehicle: saline) was 106 % of control.
`CNCC(SC)c1ccc(O)c(O)c1` (stereo not given) was tested, and the T/C (dose: 50.0 mg/kg/injection, schedule: Q01DX009 (ip), vehicle: saline) was 103 % of control, the T/C [8] was 103 % of control and the T/C [9] was 114 % of control. For the same compound, the T/C [10] was 121 % of control and the T/C [11] was 114 % of control.
With `CC1=CC(=O)OC1=O` (tested in a mixture with another compound) the T/C (dose: 37.5 mg/kg/injection, schedule: Q01DX009 (ip), vehicle: carboxymethylcellulose (CMC)) was 117 % of control, the T/C [12] was 109 % of control and the T/C [13] was 118 % of control.
For `c1ccc([B-](c2ccccc2)([C+]2CCCCC2)N2CCCCC2)cc1`, the T/C [12] was 104 % of control and the T/C [13] was 100 % of control.
In the case of `Cc1cc(C)c(S(=O)(=O)N=[N+]=[N-])c(C)c1`, the T/C [14] is reported as 101 % of control, the T/C [15] is reported as 103 % of control and the T/C [16] is reported as 97 % of control.
`O=C(N/N=C(\C=N\NC(=O)c1ccccc1)CC(O)C(O)CO)c1ccccc1` (stereo not given) was tested, and the T/C [17] was 91 % of control, the T/C [18] was 96 % of control and the T/C [19] was 93 % of control.
In the case of `Nc1nc(N)c2nc(CNc3ccc(C(=O)NC(CCC(=O)O)C(=O)O)nc3)cnc2n1` (stereo not given), the T/C (dose: 0.44 mg/kg/injection, schedule: Q01DX009 (ip), vehicle: Klucel (hydroxypropylcellulose) (HPC)) is reported as 169 % of control, the T/C (dose: 0.66 mg/kg/injection, schedule: Q01DX009 (ip), vehicle: Klucel (hydroxypropylcellulose) (HPC)) is reported as 168 % of control and the T/C (dose: 75.0 micrograms/kg/injection, schedule: Q01DX009 (ip), vehicle: Klucel (hydroxypropylcellulose) (HPC)) is reported as 119 % of control. The T/C (dose: 100.0 micrograms/kg/injection, schedule: Q01DX009 (ip), vehicle: Klucel (hydroxypropylcellulose) (HPC)) was 150 % of control, the T/C (dose: 150.0 micrograms/kg/injection, schedule: Q01DX009 (ip), vehicle: Klucel (hydroxypropylcellulose) (HPC)) was 156 % of control and 160 % of control and the T/C (dose: 220.0 micrograms/kg/injection, schedule: Q01DX009 (ip), vehicle: Klucel (hydroxypropylcellulose) (HPC)) was 161 % of control. The T/C (dose: 600.0 micrograms/kg/injection, schedule: Q01DX009 (ip), vehicle: Klucel (hydroxypropylcellulose) (HPC)) was 102 % of control.
With `CC(C)(C)NCCCC(=O)O` the T/C [2] was 110 % of control, the T/C [4] was 100 % of control and the T/C [7] was 92 % of control.
For `N#Cc1cccc(-c2nc3ncnc(N)c3[nH]2)c1`, the T/C [17] was 94 % of control, the T/C [18] was 96 % of control and the T/C [19] was 92 % of control.
In the case of `CC1CCCC2=[N+]1CCCC2` (stereo not given), the T/C (dose: 50.0 mg/kg/injection, schedule: Q01DX001 (ip), vehicle: carboxymethylcellulose (CMC)) is reported as 96 % of control, the T/C (dose: 100.0 mg/kg/injection, schedule: Q01DX001 (ip), vehicle: carboxymethylcellulose (CMC)) is reported as 96 % of control and the T/C (dose: 200.0 mg/kg/injection, schedule: Q01DX001 (ip), vehicle: carboxymethylcellulose (CMC)) is reported as 93 % of control.
In the case of `Cc1c(C#N)oc2c(Cl)cc(Cl)cc12`, the T/C [20] is reported as 99 % of control, the T/C [17] is reported as 100 % of control and the T/C [21] is reported as 99 % of control. The T/C [18] was 100 % of control and the T/C [19] was 101 % of control.
For `COC(=O)NC1CCCCC1I` (stereo not given), the T/C [1] was 89 % of control, the T/C [2] was 95 % of control and the T/C [3] was 101 % of control. For the same compound, the T/C [4] was 98 % of control, the T/C [5] was 96 % of control and the T/C [7] was 93 % of control.
In the case of `CC(C)C[As](=O)(O)O`, the T/C [17] is reported as 106 % of control and the T/C [18] is reported as 95 % of control.
In the case of `CC1(C)C2CC3C(=CCCC3C#N)C1C2` (stereo not given), the T/C [20] is reported as 105 % of control, the T/C [17] is reported as 97 % of control and the T/C [21] is reported as 97 % of control. For the same compound, the T/C [18] was 95 % of control, the T/C (dose: 400.0 mg/kg/injection, schedule: Q01DX009 (ip), vehicle: Klucel (hydroxypropylcellulose) (HPC)) was 103 % of control and the T/C [19] was 92 % of control.
For `O=C1N(c2cccnc2)C(c2ccccc2)C1(c1ccccc1)c1ccccc1` (stereo not given), the T/C (dose: 100.0 mg/kg/injection, schedule: Q04DX003 (ip), vehicle: gum acacia) was 91 % of control, the T/C (dose: 200.0 mg/kg/injection, schedule: Q04DX003 (ip), vehicle: gum acacia) was 87 % of control and the T/C (dose: 400.0 mg/kg/injection, schedule: Q04DX003 (ip), vehicle: gum acacia) was 91 % of control.
With `O=[N+]([O-])C1CCC(C2=CSC3CCCCC3N2)CC1` (stereo not given) the T/C (dose: 100.0 mg/kg/injection, schedule: Q04DX002 (ip), vehicle: saline with Tween-80) was 90 % of control, the T/C (dose: 200.0 mg/kg/injection, schedule: Q04DX002 (ip), vehicle: saline with Tween-80) was 101 % of control and the T/C [6] was 116 % of control.
In the case of `CSc1ncc(C=O)c(N)n1`, the T/C [1] is reported as 100 % of control and the T/C [3] is reported as 96 % of control.
For `Cn1cnc2[nH]c(Cl)nc(=S)c21`, the T/C [14] was 95 % of control, the T/C [15] was 92 % of control and the T/C [16] was 95 % of control.
With `CCCCN1CCC(N)=NC1=O` the T/C (dose: 100.0 mg/kg/injection, schedule: Q01DX Z (ip), vehicle: saline) was 100 % of control and the T/C (dose: 200.0 mg/kg/injection, schedule: Q01DX Z (ip), vehicle: saline) was 100 % of control.
For `CCCNC(=O)Oc1ccc(Nc2ccccc2)cc1`, the T/C [22] was 118 % of control, the T/C [23] was 103 % of control and the T/C [24] was 107 % of control.
With `C[N+](C)(C)c1ccc(/C(C#N)=N/O)cc1` the T/C (dose: 12.5 mg/kg/injection, schedule: Q01DX009 (ip), vehicle: Klucel (hydroxypropylcellulose) (HPC)) was 101 % of control and the T/C (dose: 25.0 mg/kg/injection, schedule: Q01DX009 (ip), vehicle: Klucel (hydroxypropylcellulose) (HPC)) was 100 % of control.
For `CC(O)(c1ccncc1)c1cc2ccccc2n1S(=O)(=O)c1ccccc1` (stereo not given), the T/C [22] was 95 % of control and the T/C [23] was 87 % of control.
`COc1ccccc1C(=O)N/N=C\c1c[nH]c2ccccc12` was tested, and the T/C [22] was 93 % of control, the T/C [23] was 89 % of control and the T/C [24] was 89 % of control.

— PubChem BioAssay AID248 (DTP/NCI, 2004)
